Values of other authors as cited in patent US20100068204A1, “4-ARYLOXYQUINOLIN-2(1H)-ONES AS MTOR KINASE AND PI3 KINASE INHIBITORS, FOR USE AS ANTI-CANCER AGENTS” (Wyeth, priority 2008, published 2010).

Key:
[1] = single- and repeat-dosing; cited from earlier work
[2] = test system: acute lymphoblastic leukemia xenograft; settings: in vivo; cited from earlier work
[3] = test system: human tumor xenograft models; settings: chronic oral administration, 400 mg/kg; A549, PC-3, WiDr; cited from earlier work
mTOR = mTOR (Homo sapiens, UniProt P42345); settings: read-out: mTOR IC50; literature; mTOR complexes / mTOR enzymes; cited from earlier work

O=C1NC(=O)/C(=C/c2ccc3nccc(-c4ccncc4)c3c2)S1 [GSK-1059615]
exposure in phase 1 clinical study [1]: lack of sufficient exposure

CO[C@H]1C[C@@H]2CC[C@@H](C)[C@@](O)(O2)C(=O)C(=O)N2CCCC[C@H]2C(=O)O[C@H]([C@H](C)C[C@@H]2CC[C@@H](OC(=O)C(C)(CO)CO)[C@H](OC)C2)CC(=O)[C@H](C)/C=C(\C)[C@@H](O)[C@@H](OC)C(=O)[C@H](C)C[C@H](C)/C=C/C=C/C=C/1C [Torisel]
activity in NOS/SCID xenograft mouse model of acute lymphoblastic leukemia [2]: active

FC(F)c1nc2ccccc2n1-c1nc(N2CCOCC2)nc(N2CCOCC2)n1 [ZSTK474, 2-(2-difluoromethylbenzoimidazol-1-yl)-4,6-dimorpholino-1,3,5-triazine]
tumor growth in mouse human xenograft cancer models [3]: completely inhibited growth
IC50 (mTOR): > 10 µM
